Where “and” joins values, the source holds several entries; their conditions need not be identical. Identical values can stand only once.
How the values were obtained:
HCT116 cells [1] = assay: Inhibition of topotecan induced G2 arrest in vitro (FACS); assay type: cell-based; settings: for inhibition of topotecan induced G2 arrest: 24 h
Method: (§3) The compounds were added to the cells after G2 arrest induced by 18 h topotecan treatment at the indicated concentrations and incubated for a period of 24 h. Cells were then harvested and analyzed by FACS.
(§4) Fixed cells were centrifuged at 1600 rpm for 5 minutes and the ETOH was decanted. They were then washed with 2 ml of PBS, recentrifuged and decanted. The cells were then stained with propidium iodide. Cell cycle study was performed using a FACSCalibur (Becton Dickinson) using Cell-QuestPro software. Cell cycle distribution was determined using either Modfit (Verity software house, ME, USA) or WinMDI (Joseph Trotter, Scripps Institute) software.

H460 cells [2] = assay: as above; assay type: cell-based; settings: 24 h
Method: as §3, §4

tumor = settings: 100 and 200 mg/kg, intraperitoneal injection, literature; cited from earlier work
HCT116 cells [3] = assay: In vivo hollow fibre PD model, topotecan G2 arrested cells implanted in mice (FACS); settings: for 0 h G2 % / 24 h % G1 / 24 h % G2 / Δ% G2/ Δ% G1 / SΔ % G2: Control TOP (vehicle); for SΔ % G2: % G2 at 24 h - % G2 at 0 h
Method: Specifically, HCT116 cells were first arrested at G2 with topotecan (TOP) treatment. At the end of 18 h topotecan treatment, fibres were implanted subcutaneously to mice with 4 fibres per mouse (FIG. 3A). Control fibres without topotecan treatment were also included (FIGS. 3F, G). […] The first injection was administered immediately after fibre implantation while the second injection was given 5 hours later. Mice in the TOP alone control group (n=2) received vehicle (0.9% NaCl) only (FIG. 3D). After implantation, fibres (8 fibres per time point) were retrieved from mice at indicated time points. Cells were then flushed out from the fibres and analyzed by FACS and immunoblotting.
At indicated time points, fibres were removed from mice, wiped with gauze and placed in petri dishes or 6 well plates containing enough warm media to cover fibres. Both ends of the fibres were then cut open using forceps and scissors. The fibres were flushed twice with a 200 μL pipette filled with medium by inserting into fibre opening. The medium containing the cells were collected and centrifuged for 3-minutes at 1600 rpm. The supernatant was discarded and 1 mL of trypsin was added onto the pellets and mixed until single cell suspension is obtained. Then, 5 mL of serum rich medium was added to the cell suspension and centrifuged. The supernatant was then decanted leaving approximately 200 μL of cell suspension. The suspension was then added. drop wise while vortexing to 5 mL of ice cold 70% ETOH. Cells were then fixed at −20° C. for a minimum of 1 hour. The cells obtained were then processed according to FACS staining protocol. 3-8 fibres from each time point were typically used for FACS analysis.

HCT116 cells [4] = assay: Double thymidine block and G2 arrest with brief topotecan treatment in vitro; assay type: cell-based; settings: 1 h treatment, 24 h after block removal
Method: We adapted the study of G2 checkpoint regulation to the study of other cell cycle regulation pathways. Cells were first synchronized at the G1/S boundary by means of a double thymidine block (FIG. 7A-F). After synchronization, cells were harvested at indicated time points for observation of cell cycle progression (7B, C). To arrest cells at G2 checkpoint, the synchronized cells were incubated with topotecan at indicated concentrations for 1 h, and the topotecan was added 30 to 60 minutes after the release of double thymidine block. Topotecan treated cells were then harvested 24 h after double thymidine block and analyzed with FACS. Alternatively, at the end of double thymidine block, fibres were implanted to mice subcutaneously (4 fibres per mouse); fibres were retrieved from mice at the specified time points (8 fibres per time point) and analyzed by FACS. Control fibers without double thymidine treatment (8A, F) were also included.
Cells were plated onto 10-cm dishes on day 1 such that 30% confluence is reached on day 2. In hollow fibre experiments, loaded fibres were made on day 1, and incubated in the dishes overnight. On day 2, thymidine was added to the dishes to a final concentration of 2 mM. […] Cells were harvested 24 hours after the second thymidine treatment, and analyzed by FACS analysis. […]

HCT116 cells [5] = assay: Topotecan induced G2 arrest in vitro (topotecan titration, FACS); assay type: cell-based
Method: (§1) To perform the experiments, cells were grown to 50% confluency in 10 cm dishes. The cells were then dosed with topotecan at indicated concentrations for 18 hours. Cells were then harvested and the G2 arrest was analyzed by FACS analysis 24 h later.
(§2) The cells were then stained with propidium iodide.

H460 cells [6] = assay: as above; assay type: cell-based
Method: as §1, §2

[7] = TOP alone (50 nM, 18 h), 30 h, mean
[8] = TOP alone (50 nM, 18 h), 30 h, single replicates, listed as TOP

SMILES: Cn1c(=O)c2c(ncn2C)n(C)c1=O [Caffeine]
- inhibition of topotecan induced G2 arrest (HCT116 cells [1]; 4 mM, HCT116): significantly inhibits topotecan induced G2 arrest
- inhibition of topotecan induced G2 arrest (H460 cells [2]; 4 mM, H460): significantly inhibits topotecan induced G2 arrest
- sensitization of tumor to radiotherapy by inhibiting radiation induced G2 arrest (tumor): sensitize tumor to radiotherapy
- inhibition of topotecan induced G2 arrest in tumor cells in vivo (HCT116 cells [3]; systemic injection to mice): inhibit topotecan induced G2 arrest

SMILES: CC[C@@]1(O)C(=O)OCc2c1cc1n(c2=O)Cc2cc3c(CN(C)C)c(O)ccc3nc2-1 [Topotecan]
- G2 arrest at 30 hour after implantation (HCT116 cells [3]; 30 nM topotecan, 30 h): ~70%
- cells arrested at G2/M phase at time 0 h (HCT116 cells [3]; 50 nM topotecan 18 h, HCT116 in hollow fibres, 0 h): About 90%
- G2 arrest at 30 hour after implantation (HCT116 cells [3]; 50 nM topotecan, 30 h): about 90%
- 0 h G2 % (HCT116 cells [3]; Exp. 1, 0 h): 83.00%
- 24 h % G1 (HCT116 cells [3]; Exp. 1, 24 h): 23.00%
- 24 h % G2 (HCT116 cells [3]; Exp. 1, 24 h): 71.00%
- Δ% G2/ Δ% G1 (HCT116 cells [3]; Exp. 1, 24 h): 3.09
- SΔ % G2 (HCT116 cells [3]; Exp. 1): −12.00%
- 0 h G2 % (HCT116 cells [3]; Exp. 2, 0 h): 69.00%
- 24 h % G1 (HCT116 cells [3]; Exp. 2, 24 h): 16.00%
- 24 h % G2 (HCT116 cells [3]; Exp. 2, 24 h): 58.00%
- Δ% G2/ Δ% G1 (HCT116 cells [3]; Exp. 2, 24 h): 3.63
- SΔ % G2 (HCT116 cells [3]; Exp. 2): −11.00%
- % G1, Mean (HCT116 cells [3]; [7]): 7.9%
- % G2, Mean (HCT116 cells [3]; [7]): 88.7%
- Odd (% G2/% G1), Mean (HCT116 cells [3]; [7]): 11.4
- % G1 (HCT116 cells [3]; [8]): 7.3% and 7.2% and 9.0%
- % G2 (HCT116 cells [3]; [8]): 88.1% and 90.2% and 87.9%
- Odd (% G2/% G1) (HCT116 cells [3]; [8]): 12.0 and 12.5 and 9.7
- Odd ratio (HCT116 cells [3]; TOP alone, reference group): 1.0
- G2 arrest of double thymidine block synchronized cells (HCT116 cells [4]; 2 μM): complete G2 arrest
- S phase arrest of double thymidine block synchronized cells (HCT116 cells [4]; 5 μM): noticeable S phase arrest
- time at which cells begin to reenter the cell cycle after topotecan treatment (HCT116 cells [5]; HCT116): ~9 h
- minimal concentration required to achieve an efficient G2 arrest (HCT116 cells [5]; HCT116, 18 h treatment): 25 nM
- time at which cells begin to reenter the cell cycle after topotecan treatment (H460 cells [6]; H460): about 7 h
- concentration that sufficiently arrests cells at the G2 checkpoint (H460 cells [6]; H460, 18 h treatment): 50 nM

SMILES: Cn1c2ccccc2c2c3c(c4c5ccccc5n(CCC#N)c4c21)CNC3=O [Go6976]
- inhibition of topotecan induced G2 arrest (HCT116 cells [1]; 1.3 μM, HCT116 (FIG. 2H)): effectively inhibits G2 arrest
- toxicity to cells (microscope, FACS) (HCT116 cells [1]; Go6976 alone at the tested concentration): does not show any signs of toxicity
- inhibition of topotecan induced G2 arrest (H460 cells [2]; 5 μM, H460 (FIG. 2D)): effectively inhibits G2 arrest

— patent publication US20070172425A1, “Testing cell cycle regulation effect of a compound using a hollow fibre cell implant” (priority 2003, published 2007)
